# In ChEMBL document CHEMBL4715817, “Python Cathelicidin CATHPb1 Protects against Multidrug-Resistant Staphylococcal Infections by Antimicrobial-Immunomodulatory Duality” (J Med Chem, 2018):
# The source made the active and inactive calls. No cut-off for these calls is given here. Peptide text beside a SMILES is read from it.
# Assays:
# Staphylococcus aureus [1] = assay: In vivo antibacterial activity against vancomycin resistant Staphylococcus aureus infected in kunming mouse assessed as reduction in bacterial load in spleen at 10 mg/kg, ip administered 24 hrs before infection; type: functional, organism-based
# Escherichia coli = assay: Antimicrobial activity against Escherichia coli IS 08032813 incubated for 16 to 18 hrs by fluorescence microplate reader analysis; type: functional; conditions: time 16-18 hrs
# Salmonella paratyphi = assay: Antimicrobial activity against Salmonella paratyphi IS 738 incubated for 16 to 18 hrs by fluorescence microplate reader analysis; type: functional, Salmonella enterica subsp. enterica serovar Paratyphi A; conditions: Salmonella enterica, time 16-18 hrs
# Klebsiella pneumoniae [2] = assay: Antimicrobial activity against Klebsiella pneumoniae IS 08B343 incubated for 16 to 18 hrs by fluorescence microplate reader analysis; type: functional; conditions: time 16-18 hrs
# Klebsiella pneumoniae [3] = assay: Antimicrobial activity against Klebsiella pneumoniae IS 1400 incubated for 16 to 18 hrs by fluorescence microplate reader analysis; type: functional; conditions: time 16-18 hrs
# Candida albicans [4] = assay: Antimicrobial activity against Candida albicans IS 08030102 incubated for 16 to 18 hrs by fluorescence microplate reader analysis; type: functional; conditions: time 16-18 hrs
# Nakaseomyces glabratus [5] = assay: Antimicrobial activity against Candida glabrata IS 09050201 incubated for 16 to 18 hrs by fluorescence microplate reader analysis; type: functional; conditions: time 16-18 hrs
# Macrophage [6] = assay: Immunomodulatory activity in mouse peritoneal macrophage assessed as inhibition of LPS-induced MCP-1 level measured after 6 hrs by qRT-PCR analysis; type: functional, tissue-based; conditions: dose 5-20 µg/ml
# Macrophage [7] = assay: Immunomodulatory activity in mouse peritoneal macrophage assessed as inhibition of LPS-induced TNF-alpha level measured after 24 hrs by ELISA; type: functional, tissue-based; conditions: dose 5-20 µg/ml
# Staphylococcus aureus [8] = assay: In vivo antibacterial activity against vancomycin resistant Staphylococcus aureus infected in kunming mouse assessed as reduction in bacterial load in peritoneum at 10 mg/kg, im measured 18 hrs after infection; type: functional, organism-based
# Staphylococcus aureus [9] = assay: In vivo antibacterial activity against vancomycin resistant Staphylococcus aureus infected in kunming mouse assessed as reduction in bacterial load in peritoneum at 10 mg/kg, sc measured 18 hrs after infection; type: functional, organism-based
# Staphylococcus aureus [10] = assay: In vivo antibacterial activity against vancomycin resistant Staphylococcus aureus infected in ip dosed kunming mouse assessed as increase in survival rate administered 4 hrs after infection and measured up to 7 days after infection; type: functional, organism-based; conditions: dose 5-20 mg/kg, time day <=7
# Staphylococcus aureus [11] = assay: In vivo antibacterial activity against vancomycin resistant Staphylococcus aureus infected in neutropenic kunming mouse model assessed as bacterial load in peritoneal lavage at 10 mg/kg, ip administered 24 hrs before infection; type: functional, organism-based
# Staphylococcus aureus [12] = assay: In vivo antibacterial activity against vancomycin resistant Staphylococcus aureus infected in neutropenic kunming mouse model assessed as survival rate at 10 mg/kg, ip administered 24 hrs before infection; type: functional, organism-based
# Pseudomonas aeruginosa = assay: Antibiofilm activity against Pseudomonas aeruginosa assessed as biofilm eradication at BIC-5 by XTT and crystal violet staining assay relative to control; type: functional
# Klebsiella oxytoca = assay: Antibiofilm activity against Klebsiella oxytoca assessed as biofilm eradication at BIC-5 by XTT and crystal violet staining assay relative to control; type: functional
# Nakaseomyces glabratus [13] = assay: Antibiofilm activity against Candida glabrata assessed as biofilm eradication at BIC-5 by XTT and crystal violet staining assay relative to control; type: functional
# Candida albicans [14] = assay: Antibiofilm activity against Candida albicans assessed as biofilm eradication at BIC-5 by XTT and crystal violet staining assay relative to control; type: functional
# Neutrophil [15] = assay: Immunomodulatory activity in neutrophils (unknown origin) assessed as increase in MCP-1 level at 20 ug/ml measured after 12 hrs by ELISA; type: functional, cell-based; conditions: dose 20.0 µg/ml
# Mus musculus [16] = assay: Immunomodulatory activity in Kunming mouse infected with vancomycin-resistant Staphylococcus aureus assessed as decreased in IL-1beta level in peritoneal lavage at 10 mg/kg, ip administered 24 hrs before infection by ELISA; type: functional, organism-based
# Mus musculus [17] = assay: Immunomodulatory activity in Kunming mouse infected with vancomycin-resistant Staphylococcus aureus assessed as decreased in TNF-alpha level in peritoneal lavage at 10 mg/kg, ip administered 4 hrs after infection by ELISA; type: functional, organism-based
# Mus musculus [18] = assay: Immunomodulatory activity in Kunming mouse infected with vancomycin-resistant Staphylococcus aureus assessed as decreased in IL-1beta level in peritoneal lavage at 10 mg/kg, ip administered 4 hrs after infection by ELISA; type: functional, organism-based
# Mus musculus [19] = assay: Immunomodulatory activity in Kunming mouse infected with vancomycin-resistant Staphylococcus aureus assessed as increased in IL-10 level in peritoneal lavage at 10 mg/kg, ip administered 4 hrs after infection by ELISA; type: functional, organism-based
# [20] = Toxicity in Kunming mouse assessed as effect on IL-10 levels at 10 mg/kg, ip measured after 5 hrs by ELISA; type: organism-based; conditions: in vivo
# [21] = Toxicity in Kunming mouse assessed as effect on TNF-alpha levels at 10 mg/kg, ip measured after 5 hrs by ELISA; type: organism-based; conditions: in vivo
# Staphylococcus aureus [22] = assay: Antibacterial activity against FITC-labelled Staphylococcus aureus ATCC 25923 infected in neutrophil cells assessed as entrapment of bacteria by NET releasing neutrophil at 20 to 40 ug/ml by fluorescence analysis; type: functional, organism-based; conditions: dose 20-40 µg/ml
# Mus musculus [23] = assay: Immunomodulatory activity in mouse assessed as increase number of inflammatory monocytes in peritoneal cavity at 10 mg/kg, ip measured after 5 to 24 hrs by flow cytometry; type: functional, organism-based; conditions: time 5-24 hrs
# Mus musculus [24] = assay: Immunomodulatory activity in Kunming mouse infected with vancomycin-resistant Staphylococcus aureus assessed as effect number of inflammatory macrophages in peritoneal cavity at 10 mg/kg, ip measured upto 24 hrs by flow cytometry; type: functional, organism-based; conditions: time hrs <=24
# Neutrophil [25] = assay: Induction of ROS production in neutrophil (unknown origin) by fluorescence assay; type: functional, cell-based; conditions: dose 10-40 µg/ml
# Staphylococcus aureus [26] = assay: Antibacterial activity against vancomycin-resistant Staphylococcus aureus assessed as neutrophil-induced bacterial cell killing neutrophils pretreated with compound measured after 15 to 60 mins; type: functional, organism-based; conditions: dose 10-40 µg/ml, time 15-60 min
# [27] = Induction of neutrophil extracellular trap formation in neutrophil (unknown origin) at 10 ug/ml measured after 3 hrs by fluorescence analysis; type: functional; conditions: dose 10 µg/ml
# [28] = molecular target: T1, Mitogen-activated protein kinase 1 and 3 (ERK2 and ERK1) (Mus musculus) (UniProt P63085+Q63844); assay: Inhibition of LPS-induced phosphorylation of Erk1/2 in mouse peritoneal macrophage pretreated for 1 hr followed by LPS stimulation measured after 30 mins by Western blot analysis; type: tissue-based; conditions: dose 5-20 µg/ml, time 1.5 hrs
# T1 sequence (P63085 whole entry, looked up): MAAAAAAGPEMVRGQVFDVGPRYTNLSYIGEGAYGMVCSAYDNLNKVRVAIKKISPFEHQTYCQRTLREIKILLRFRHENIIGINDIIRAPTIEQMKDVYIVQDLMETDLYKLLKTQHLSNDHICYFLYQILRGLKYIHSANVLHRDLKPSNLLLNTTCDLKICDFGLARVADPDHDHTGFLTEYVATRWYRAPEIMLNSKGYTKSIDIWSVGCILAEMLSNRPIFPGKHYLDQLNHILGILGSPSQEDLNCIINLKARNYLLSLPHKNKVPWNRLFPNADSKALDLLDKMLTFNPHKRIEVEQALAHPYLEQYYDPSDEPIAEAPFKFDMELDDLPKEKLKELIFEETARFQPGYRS
# T1 sequence (Q63844 whole entry, looked up): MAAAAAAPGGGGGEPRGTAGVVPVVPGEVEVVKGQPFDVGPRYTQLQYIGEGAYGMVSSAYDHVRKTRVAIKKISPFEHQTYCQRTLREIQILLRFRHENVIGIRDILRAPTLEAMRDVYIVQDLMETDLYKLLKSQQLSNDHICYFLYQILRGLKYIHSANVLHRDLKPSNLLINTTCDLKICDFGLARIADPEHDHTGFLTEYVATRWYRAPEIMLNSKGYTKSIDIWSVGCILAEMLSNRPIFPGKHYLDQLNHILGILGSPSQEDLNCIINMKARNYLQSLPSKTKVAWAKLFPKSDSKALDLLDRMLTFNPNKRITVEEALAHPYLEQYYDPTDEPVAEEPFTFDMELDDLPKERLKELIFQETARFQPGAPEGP
# [29] = molecular target: Mitogen-activated protein kinase 8/9 (Homo sapiens) (UniProt P45983+P45984); assay: Inhibition of LPS-induced phosphorylation of Jnk1/2 in mouse peritoneal macrophage pretreated for 1 hr followed by LPS stimulation measured after 30 mins by Western blot analysis; type: tissue-based; conditions: dose 5-20 µg/ml, time 1.5 hrs
# Mitogen-activated protein kinase 8/9 (Homo sapiens), sequence (P45983 whole entry, looked up): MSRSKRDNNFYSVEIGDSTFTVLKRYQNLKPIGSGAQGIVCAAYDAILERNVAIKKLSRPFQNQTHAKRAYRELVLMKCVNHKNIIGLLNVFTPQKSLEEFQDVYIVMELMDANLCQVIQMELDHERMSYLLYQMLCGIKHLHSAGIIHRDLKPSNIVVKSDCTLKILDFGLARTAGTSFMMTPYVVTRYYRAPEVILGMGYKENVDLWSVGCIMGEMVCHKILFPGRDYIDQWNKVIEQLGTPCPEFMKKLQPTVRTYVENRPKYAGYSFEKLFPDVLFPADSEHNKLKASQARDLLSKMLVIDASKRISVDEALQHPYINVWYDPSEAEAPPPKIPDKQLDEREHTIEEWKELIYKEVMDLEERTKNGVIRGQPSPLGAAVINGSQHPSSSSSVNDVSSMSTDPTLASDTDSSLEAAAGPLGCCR
# Mitogen-activated protein kinase 8/9 (Homo sapiens), sequence (P45984 whole entry, looked up): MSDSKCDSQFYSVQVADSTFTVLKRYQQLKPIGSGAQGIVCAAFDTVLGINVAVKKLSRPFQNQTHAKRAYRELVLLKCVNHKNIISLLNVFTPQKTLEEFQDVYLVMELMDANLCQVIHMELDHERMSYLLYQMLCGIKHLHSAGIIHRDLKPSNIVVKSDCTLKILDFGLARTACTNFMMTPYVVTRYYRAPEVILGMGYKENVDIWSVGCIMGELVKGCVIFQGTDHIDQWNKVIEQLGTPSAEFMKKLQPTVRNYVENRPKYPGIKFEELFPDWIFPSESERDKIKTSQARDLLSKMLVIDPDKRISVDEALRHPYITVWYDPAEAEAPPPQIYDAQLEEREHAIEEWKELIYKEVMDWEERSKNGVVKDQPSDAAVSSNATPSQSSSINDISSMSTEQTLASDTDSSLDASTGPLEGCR
# [30] = molecular target: T1, Mitogen-activated protein kinase 1 and 3 (ERK2 and ERK1) (Mus musculus); assay: Inhibition of LPS-induced phosphorylation of Erk1/2 in mouse peritoneal macrophage at 20 ug/ml pretreated for 1 hr followed by LPS stimulation measured after 30 mins by Western blot analysis relative to control; type: tissue-based; conditions: dose 20.0 µg/ml, time 1.5 hrs
# [31] = Hemolytic activity in human erythrocytes measured at 100 ug/ml; type: ADME, cell-based, Erythrocyte; conditions: at 100 µg/mL, read-out: Activity
# Staphylococcus aureus [32] = assay: Antibacterial activity against vancomycin-resistant Staphylococcus aureus assessed as bactericidal activity incubated at 0 to 90 degree C for 1 hr; type: functional, organism-based
structure (smiles),measurement,setting,value
CC[C@H](C)[C@H](NC(=O)[C@@H]1CCCN1C(=O)[C@@H](NC(=O)[C@@H](NC(=O)CNC(=O)CNC(=O)[C@@H](NC(=O)[C@H](Cc1ccccc1)NC(=O)[C@@H](NC(=O)[C@H](CCCCN)NC(=O)[C@@H](NC(=O)[C@H](CCCCN)NC(=O)[C@H](CCCCN)NC(=O)[C@H](Cc1ccccc1)NC(=O)[C@@H](NC(=O)[C@H](CCCCN)NC(=O)[C@H](CCCNC(=N)N)NC(=O)[C@H](Cc1ccccc1)NC(=O)CNC(=O)[C@H](CCCCN)NC(=O)[C@H](CCCCN)NC(=O)[C@@H](NC(=O)[C@H](CCCCN)NC(=O)[C@H](CCCNC(=N)N)NC(=O)[C@H](Cc1ccccc1)NC(=O)[C@H](Cc1ccccc1)NC(=O)[C@H](CCCCN)NC(=O)[C@H](CCCCN)NC(=O)[C@H](Cc1ccccc1)NC(=O)[C@H](CCCNC(=N)N)NC(=O)[C@@H](N)CCCCN)[C@@H](C)CC)[C@@H](C)CC)[C@@H](C)O)[C@@H](C)CC)[C@@H](C)CC)[C@@H](C)O)[C@@H](C)CC)C(=O)O (H-KRFKKFFRKIKKGFRKIFKKTKIFIGGTIPI-OH),Activity,Staphylococcus aureus [1],Active
same,MIC,Escherichia coli,1.17 µg/mL
same,MIC,Salmonella paratyphi,1.17 µg/mL
same,MIC,Klebsiella pneumoniae [2],1.17 µg/mL
same,MIC,Klebsiella pneumoniae [3],1.17 µg/mL
same,MIC,Candida albicans [4],1.17 µg/mL
same,MIC,Nakaseomyces glabratus [5],1.17 µg/mL
same,inhibition,Macrophage [6],Dose-dependent effect
same,inhibition,Macrophage [7],Dose-dependent effect
same,Activity,Staphylococcus aureus [8],Active
same,Activity,Staphylococcus aureus [9],Active
same,Activity,Staphylococcus aureus [10],Dose-dependent effect
same,Activity,Staphylococcus aureus [11],inactive
same,Activity,Staphylococcus aureus [12],inactive
same,Activity,Pseudomonas aeruginosa,62.23%
same,Activity,Klebsiella oxytoca,75.31%
same,Activity,Nakaseomyces glabratus [13],37.47%
same,Activity,Candida albicans [14],38.69%
same,Activity,Neutrophil [15],Active
same,Activity,Mus musculus [16],Active
same,Activity,Mus musculus [17],Active
same,Activity,Mus musculus [18],Active
same,Activity,Mus musculus [19],Active
same,Activity,[20],Non-Toxic
same,Activity,[21],Non-Toxic
same,Activity,Staphylococcus aureus [22],Active
same,Activity,Mus musculus [23],Active
same,Activity,Mus musculus [24],inactive
same,Activity,Neutrophil [25],Dose-dependent effect
same,Activity,Staphylococcus aureus [26],Dose-dependent effect
same,Activity,[27],15.65%
same,inhibition,[28],Dose-dependent effect
same,inhibition,[29],Dose-dependent effect
same,inhibition,[30],90%
same,hemolysis at 100 ug/ml,[31],6.63%
same,Activity,Staphylococcus aureus [32],Active
